O=C(N[C@@H](Cc1ccc(O)cc1)C(=O)O)OCC1c2ccccc2-c2ccccc21
solubility (mole fraction)
Conditions | 293.15 K | 298.15 K | 303.15 K | 308.15 K | 313.15 K | 318.15 K | 323.15 K | 328.15 K | 333.15 K
in acetone | 0.0683 | 0.0723 | 0.077 | 0.078 | 0.0824 | 0.0901 | 0.0959 | – | –
in acetonitrile | 0.00233 | 0.00272 | 0.00326 | 0.00382 | 0.00432 | 0.00504 | 0.00637 | 0.00781 | 0.00884
in dimethyl carbonate | 0.00346 | 0.00367 | 0.0044 | 0.00477 | 0.00583 | 0.00638 | 0.00747 | 0.00918 | 0.0109
in ethyl acetate | 0.0129 | 0.0135 | 0.014 | 0.0152 | 0.0164 | 0.019 | 0.0203 | 0.0222 | 0.0254
in isobutanol | 0.00543 | 0.00685 | 0.00823 | 0.00992 | 0.0123 | 0.0146 | 0.0175 | 0.0219 | 0.0279
in isopropanol | 0.0147 | 0.0179 | 0.0213 | 0.027 | 0.0307 | 0.0385 | 0.043 | 0.0546 | 0.0691
in methyl acetate | 0.0155 | 0.0163 | 0.0173 | 0.0177 | 0.0209 | 0.0219 | 0.0249 | – | –
in n-butanol | 0.0129 | 0.0151 | 0.0178 | 0.0198 | 0.0231 | 0.0281 | 0.0319 | 0.0385 | 0.0463
in n-butyl acetate | 0.00611 | 0.00636 | 0.00688 | 0.00765 | 0.00862 | 0.00933 | 0.00976 | 0.0118 | 0.0124
in n-pentanol | 0.0111 | 0.0121 | 0.0144 | 0.0168 | 0.02 | 0.0231 | 0.0244 | 0.0324 | 0.0388
in n-propyl acetate | 0.00762 | 0.00799 | 0.00861 | 0.00951 | 0.0104 | 0.0108 | 0.0126 | 0.0138 | 0.015
in sec-butanol | 0.0146 | 0.018 | 0.0215 | 0.0263 | 0.0323 | 0.0388 | 0.0454 | 0.0538 | 0.0639

From BigSolDB 2.1
